Results taken from patent US20070225371A1, “Dermatological composition containing alkyl ureas” (priority 2006, published 2007).

What was measured:
[1] = equal to about 36 to 42% by weight; cited from earlier work
[2] = target: T1, RNase A (Bos taurus, UniProt P61823); assay: Thermal denaturation of protein RNase A in urea or 1-butyl urea solution (Poklar et al.); format: biochemical; details: for 0.7 M of 1-butyl urea; estimated from temperature profiles of conformational transition of RNase A
T1 sequence (P61823 27-150): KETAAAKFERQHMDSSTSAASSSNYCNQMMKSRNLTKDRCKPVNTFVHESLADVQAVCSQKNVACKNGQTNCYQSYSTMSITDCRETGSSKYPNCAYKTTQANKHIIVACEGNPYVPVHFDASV
From the text: In their thermal denaturation studies of protein RNase A in alkyl urea solutions, Poklar et al., “Thermodynamic Stability of Ribonuclease A in Alkylurea Solutions and Preferential Solvation Changes Accompanying its Thermal Denaturation: A Calorimetric and Spectroscopic Study” in Protein Science, 8:832-840 (1999) report that the thermal stability of RNase A in solution decreases with increasing concentrations of denaturants and the size of the hydrophobic group substituted on the urea molecule.
Based on the temperature profiles of conformational transition (denaturation) of protein RNase A in urea or in 1-butyl urea solution, it can be estimated that 0.7 M of 1-butyl urea is equivalent to about 3.5 M of urea in terms of their protein denaturing capability. These studies provide a general guideline on estimating relative keratolytic activity of urea vs. 1-butyl urea in a dermatological composition.

urea concentration equivalent in protein denaturing capability [2] | SMILES | concentration minimally needed to show any noticeable keratolytic or protein denaturing activity [1] [M]
 | NC(N)=O [urea] | 6 to 7
about 3.5 M | CCCCNC(N)=O [1-butyl urea] | 
